Here are results for seven molecules from patent publication US10799605B2 (3B PHARMACEUTICALS GMBH, priority 2014, dated 2020).

Broadly, the EC50 is the concentration that produces a half-maximal response. The low end stands for greater potency, the high end for weaker potency. What is called IC50 is the concentration at which inhibition is half-maximal. By inhibition is commonly meant the change of the read-out against control, counted positive when it falls.

Read-outs that look alike come from different tables or passages of the source.

One series deals with T1, CCR1 (h) (Homo sapiens (Human), UniProt P32246).
T1 sequence (P32246 whole entry, looked up): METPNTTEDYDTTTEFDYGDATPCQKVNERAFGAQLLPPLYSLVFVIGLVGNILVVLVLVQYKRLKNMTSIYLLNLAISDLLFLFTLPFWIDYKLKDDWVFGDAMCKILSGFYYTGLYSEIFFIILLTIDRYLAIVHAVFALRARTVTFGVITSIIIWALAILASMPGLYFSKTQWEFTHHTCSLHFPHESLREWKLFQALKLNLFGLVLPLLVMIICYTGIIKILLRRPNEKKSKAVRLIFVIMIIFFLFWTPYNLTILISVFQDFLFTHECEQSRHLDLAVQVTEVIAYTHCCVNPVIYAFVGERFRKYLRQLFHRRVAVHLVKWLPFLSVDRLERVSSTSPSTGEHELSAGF
Nature of the series: ExpresSProfile: C-C chemokine receptor type 1, agonist radioligand. Type of series: binding. Particulars: Reference Compound.

The target in series [1] is T2, NTR1 (Homo sapiens (Human), UniProt P30989). Nature of the series: Functional Ca2+ mobilisation assay (example part I). Format: cell-based. For orientation: Calcium assays in cells follow changes in intracellular calcium, usually with a dye or a luminescent sensor.
The subject of a further series is HT29 cells. The note with it: 48 h.
The target in another series is B1R (Homo sapiens (Human), UniProt P46663). Nature of the series: Radioligand binding assay B1R (bradykinin B1 receptor). Particulars: read-out: Inhibition [at 100 nM, %]. The protocol:
(§1) In order to determine the binding affinity of compounds comprising a radiolabel for B1R, a radioligand binding assay was carried out. A radioligand is a radioactive biochemical substance that is used for diagnosis or for research-oriented study of cellular receptor systems of the body. In […] systems it is often used to quantify the binding of a test molecule to the binding site of radioligand. The higher the affinity of the molecule, the more radioligand is displaced from the binding site. The amount of bound radioligand can be measured by scintillation counting and thereby quantified. This assay is commonly used to calculate binding constants of molecules to receptors.
The B1R radioligand binding assay was performed by Cerep (Celle l'Evescault, France; Catalog reference 1189) according to (Jones et al., Eur J Pharmacol, 1999, 374, 423-433). B1R was prepared from CHO cells recombinantly expressing the human receptor and incubated with 0.35 nM [^3H]desArg^10-KD and serial dilutions of the test compounds. After 60 min incubation at 4° C. and washing to remove unbound ligand, bound radioactivity was measured by scintillation counting.

For series [2] the following is noted: in vivo; cited from earlier work.
Series [3] has as its target T2, NTR1. Nature of the series: Functional Ca2+ mobilisation assay (example part II). Format: cell-based. The note with it: antagonist assay. In outline:
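HT29 or NTR1-expressing HEK293 cells loaded with Ca5 dye for 1 h at 37 °C in buffer at pH 7.4, and fluorescence recorded for about 90 s after addition. EC50 derived from agonist serial dilutions; IC50 from antagonists pre-incubated 30 min before an EC80 agonist challenge.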

Series [4] deals with T2, NTR1. Nature of the series: Radioligand binding assay NTR1 (example part II). The note with it: 0.05 nM 125I-(Tyr3-neurotensin), 60 min at 4° C.; read-out: IC50 [nM] RLB. On the procedure:
as §1, with “NTR1,” for “B1R,”
The NTR1 radioligand binding assay was performed by Cerep (Celle l'Evescault, France; Catalog reference 0109) according to Vita et al., FEBS Lett., 1993, 317, 139-142. NTR1 was prepared from CHO cells recombinantly expressing the human receptor and incubated with 0.05 nM ^125I-(Tyr^3-neurotensin) and serial dilutions of the test compounds. […] The result for each test compound is expressed as IC50 concentration and provides a measure for the affinity of the test compound for NTR1.

The nature of series [5]: Plasma stability assay, human plasma. Format: in vitro ADME. The protocol: (§2) The plasma stability assay was performed to measure the degradation of compounds of the present invention in plasma. This is an important characteristic of a compound as compounds, with the exception of pro-drugs, which rapidly degrade in plasma generally show poor in vivo efficacy.
(§3) The plasma was spiked with a 10 mM analyte solution in dimethyl sulfoxide to a final concentration of 10 μM, vortexed, and aliquotted to 50 μl samples. Two aliquots were stored at −20° C. until further treatment. Another two aliquots were incubated using an Eppendorf Thermomixer at 37° C. for 1, 4, and 24 hours. Sample clean-up was performed using a protein precipitation plate (Phenomenex Strata Impact, 64722-1-324-1) and using acetonitrile as precipitation agent. […] An aliquot of 10 μl was diluted with 90 μl 0.1% aqueous trifluoroacetic acid solution. The determination of the analyte in the clean sample solutions was performed on a Thermo TSQ Quantum Ultra triple quadrupole mass spectrometer equipped with a thermo Surveyor HPLC. The chromatographic separation was carried out on a Phenomenex Kinetex XB-C18 HPLC column (50×2 mm, […] particle size) with gradient elution using a mixture of 0.01% trifluoroacetic acid and 0.05% formic acid in water as eluent A and methanol as eluent B (20% B to 100% in 8 min, 400 μl/min, 40° C.). For mass spectrometric detection the selected reaction monitoring (SRM) was used.
(§4) Quantitation was performed by external matrix calibration using an internal standard.

Series [6] can be described thus: Plasma stability assay, mouse plasma. Format: in vitro ADME. On the procedure:
as §2, §3, §4

T2 sequence (P30989 whole entry): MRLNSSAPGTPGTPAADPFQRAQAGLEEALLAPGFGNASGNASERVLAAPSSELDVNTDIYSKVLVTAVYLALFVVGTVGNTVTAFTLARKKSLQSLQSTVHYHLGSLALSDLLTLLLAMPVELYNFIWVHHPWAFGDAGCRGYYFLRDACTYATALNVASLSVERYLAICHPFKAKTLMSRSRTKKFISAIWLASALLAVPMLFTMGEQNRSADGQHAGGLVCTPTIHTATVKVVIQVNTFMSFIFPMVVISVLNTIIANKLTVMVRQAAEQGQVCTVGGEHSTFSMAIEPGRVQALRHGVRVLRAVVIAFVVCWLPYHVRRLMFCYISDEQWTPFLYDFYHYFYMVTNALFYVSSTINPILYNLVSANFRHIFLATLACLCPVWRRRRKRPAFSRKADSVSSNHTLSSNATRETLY
B1R, sequence (P46663 whole entry): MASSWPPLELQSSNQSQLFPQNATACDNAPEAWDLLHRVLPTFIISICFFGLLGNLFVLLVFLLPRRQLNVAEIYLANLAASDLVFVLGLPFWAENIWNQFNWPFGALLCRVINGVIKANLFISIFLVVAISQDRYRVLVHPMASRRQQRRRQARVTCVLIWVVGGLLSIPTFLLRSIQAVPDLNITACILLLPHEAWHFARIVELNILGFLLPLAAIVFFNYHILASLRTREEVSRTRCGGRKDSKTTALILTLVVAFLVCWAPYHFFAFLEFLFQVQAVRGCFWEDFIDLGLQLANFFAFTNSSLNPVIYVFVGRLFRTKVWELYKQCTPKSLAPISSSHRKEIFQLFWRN

Take MIP-1alpha: in the series with CCR1 (h), the “nH Ref” value is 1.1.
Consider `COc1cccc(OC)c1-c1cc(C(=O)NC2(C(=O)O)C3CC4CC(C3)CC2C4)nn1-c1ccc(C(=O)N(C)CCCN(C)CCCN(C)C(=O)CCCC(=O)NCCCCC(NC(=O)CCC(=O)NCCCOCCOCCOCCCNC(=O)C(CCCCNC(=O)CCC(=O)O[C@@H](C(=O)O[C@H]2C[C@@]3(O)[C@@H](OC(=O)c4ccccc4)[C@@H]4[C@]5(OC(C)=O)CO[C@@H]5C[C@H](O)[C@@]4(C)C(=O)[C@H](OC(C)=O)C(=C2C)C3(C)C)[C@@H](NC(=O)c2ccccc2)c2ccccc2)NC(=O)CCC(=O)NCCCOCCOCCOCCCNC(=O)CCCC(=O)N(C)CCCN(C)CCCN(C)C(=O)c2ccc(-n3nc(C(=O)NC4(C(=O)O)C5CC6CC(C5)CC4C6)cc3-c3c(OC)cccc3OC)c(C(C)C)c2)C(N)=O)cc1C(C)C` (some centres unmarked) [(20), 1206-Glutar-Ttds-Lys(Taxol-Succinyl)-Ttds-(ε-Lys-NH2)-Glutar-1206], for which, on NTR1 [1], the concentration giving a half-maximal response (EC50) was above 50 µM and the IC50 came out at 0.032 µM. Besides, in the series with HT29 cells (HT29 cells, LDH in supernatant), the “Concentration [μM] at 20% cytotoxicity” value stood at 18 µM.
As to `CC[C@H](C)[C@H](NC(=O)[C@@H](Cc1ccc2ccccc2c1)NC(=O)[C@H](CO)NC(=O)[C@](C)(Cc1ccccc1)NC(=O)CNC(=O)[C@@H]1CCCN1C(=O)[C@@H]1C[C@@H]2CCCC[C@@H]2N1C(=O)[C@H](CCCNC(=N)N)NC(=O)[C@H](CCCN)NC(=O)CCC(=O)NCCCOCCOCCOCCCNC(=O)[C@H](CCCCNC(=O)CN1CCN(CC(=O)O)CCN(CC(=O)O)CCN(CC(=O)O)CC1)NC(=O)CCC(=O)NCCCOCCOCCOCCCNC(=O)CCCC(=O)N(C)CCCN(C)CCCN(C)C(=O)c1ccc(-n2nc(C(=O)NC3(C(=O)O)C4CC5CC(C4)CC3C5)cc2-c2c(OC)cccc2OC)c(C(C)C)c1)C(=O)O` (stereo partly drawn) [(27), 1206-Glutar-Ttds-Lys(DOTA)-Ttds-GABA-Orn-Arg-Oic-Pro-Gly-Amf-Ser-nal-Ile-OH], the inhibition at 0.1 µM on B1R was determined as 17%.
On the same count and under the same terms, the same measure for `COc1cccc(OC)c1-c1cc(C(=O)NC2(C(=O)O)C3CC4CC(C3)CC2C4)nn1-c1ccc(C(=O)N(C)CCCN(C)CCCN(C)C(=O)CCCC(=O)NCCCOCCOCCOCCCNC(=O)CCC(=O)N[C@@H](CCCCNC(=O)CN2CCN(CC(=O)O)CCN(CC(=O)O)CCN(CC(=O)O)CC2)C(=O)NCCCOCCOCCOCCCNC(=O)CCC(=O)N[C@@H](CCCCN)C(=O)N[C@@H](CCCNC(=N)N)C(=O)N2CCC[C@H]2C(=O)N2C[C@H](O)C[C@H]2C(=O)NCC(=O)N[C@@H](CC2CCCCC2)C(=O)N[C@@H](CO)C(=O)N2CCC[C@H]2C(=O)N[C@@H](CC(C)C)C(=O)O)cc1C(C)C` (stereo partly drawn) [(26), 1206-Glutar-Ttds-Lys(DOTA)-Ttds-GABA-Lys-Arg-Pro-Hyp-Gly-Cha-Ser-Pro-Leu-OH]: 20%.
Regarding `COc1cccc(OC)c1-c1cc(C(=O)NC2(C(=O)O)C3CC4CC(C3)CC2C4)nn1-c1ccc(C(=O)N(C)CCCN(C)C)cc1C(C)C` (centres unmarked) [SR142948, 2-[(5-(2,6-Dimethoxy-phenyl)-1-{4-[(3-dimethylamino-propyl)-methyl-carbamoyl]-2-isopropyl-phenyl}-1H-pyrazole-3-carbonyl)-amino]-adamantane-2-carboxylic acid], the blood-brain barrier crossing result in series [2] is listed as “cross the blood-brain barrier”.
Turning to `COc1cccc(OC)c1-c1cc(C(=O)NC2(C(=O)O)C3CC4CC(C3)CC2C4)nn1-c1ccc(C(=O)N(CCCNC(=O)CN2CCN(CC(=O)O)CCN(CC(=O)O)CCN(CC(=O)O)CC2)CCCN(C)C)cc1C(C)C` (centres unmarked) [(Va), 2-{[1-{4-[(3-DOTA-amino-propyl)-(3-dimethylamino-propyl)-carbamoyl]-2-isopropyl-phenyl}-5-(2,6-dimethoxy-phenyl)-1H-pyrazole-3-carbonyl]-amino}-adamantane-2-carboxylic acid], the 50% inhibitory concentration (IC50) on NTR1 [3] came to 12.6 nM; at NTR1 [4], 3.4 nM. Besides, the “stability in human plasma” value in series [5] is given as “highly stable”. Besides, in [5] (10 μM, 37° C., 24 h), the “% remaining after 24 h incubation, Human plasma” value is listed as above 70%. Further, in series [6], the “stability in mouse plasma” value is reported as “highly stable”. Moreover, the “% remaining after 24 h incubation, Mouse plasma” value in series [6] (10 μM, 37° C., 24 h) was above 60%.
Regarding `CC(=O)O[C@H]1C(=O)[C@@]2(C)[C@H]([C@H](OC(=O)c3ccccc3)[C@]3(O)C[C@H](OC(=O)[C@H](O)[C@@H](NC(=O)c4ccccc4)c4ccccc4)C(C)=C1C3(C)C)[C@]1(OC(C)=O)CO[C@@H]1C[C@@H]2O` [Paclitaxel, reference compound], the “Concentration [μM] at 20% cytotoxicity” value with HT29 cells (human) was 70 µM.
